# Reference: ChEMBL document CHEMBL1201862, “PubChem BioAssay data set” (2004)
#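 These data come from cells grown in 96-well plates and exposed to compound for 48 hours at five concentrations. GI50 = concentration required for 50% inhibition of growth.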 Active and inactive are the calls of the source. Rule as the data show it: active = GI50 up to about 1.1 µM and inactive = higher.
# What was measured:
# Assay in all cases: growth of human tumour cells (NCI), 48 h
# 786-0 = test system: 786-0
# A498 = test system: A498
# A549 = test system: A549
# ACHN = test system: ACHN
# BT-549 = test system: BT-549
# CAKI-1 = test system: CAKI-1
# CCRF-CEM = test system: CCRF-CEM
# COLO 205 = test system: COLO 205
# DU-145 = test system: DU-145
# EKVX = test system: EKVX
# HCC 2998 = test system: HCC 2998
# HCT-116 = test system: HCT-116
# HCT-15 = test system: HCT-15
# HL-60 = test system: HL-60
# HOP-62 = test system: HOP-62
# HOP-92 = test system: HOP-92
# HT-29 = test system: HT-29
# Hs-578T = test system: Hs-578T
# IGROV-1 = test system: IGROV-1
# K562 = test system: K562
# KM12 = test system: KM12
# LOX IMVI = test system: LOX IMVI
# M14 = test system: M14
# MCF7 = test system: MCF7
# MDA-MB-231 = test system: MDA-MB-231
# MDA-MB-435 = test system: MDA-MB-435
# MDA-N = test system: MDA-N
# MOLT-4 = test system: MOLT-4
# Malme-3M = test system: Malme-3M
# NCI-H226 = test system: NCI-H226
# NCI-H23 = test system: NCI-H23
# NCI-H460 = test system: NCI-H460
# NCI-H522 = test system: NCI-H522
# NCI/ADR-RES = test system: NCI/ADR-RES
# OVCAR-3 = test system: OVCAR-3
# OVCAR-4 = test system: OVCAR-4
# OVCAR-5 = test system: OVCAR-5
# OVCAR-8 = test system: OVCAR-8
# PC-3 = test system: PC-3
# RPMI-8226 = test system: RPMI-8226
# RXF 393 = test system: RXF 393
# SF-268 = test system: SF-268
# SF-295 = test system: SF-295
# SF-539 = test system: SF-539
# SK-MEL-28 = test system: SK-MEL-28
# SK-MEL-2 = test system: SK-MEL-2
# SK-MEL-5 = test system: SK-MEL-5
# SK-OV-3 = test system: SK-OV-3
# SN12C = test system: SN12C
# SNB-19 = test system: SNB-19
# SNB-75 = test system: SNB-75
# SR = test system: SR
# SW-620 = test system: SW-620
# T47D = test system: T47D
# TK-10 = test system: TK-10
# U-251 = test system: U-251
# UACC-257 = test system: UACC-257
# UACC-62 = test system: UACC-62
# UO-31 = test system: UO-31
# DLD-1 = test system: DLD-1
# KM-20L2 = test system: KM-20L2
# LXFL 529 = test system: LXFL 529
# M19-MEL = test system: M19-MEL
# SNB-78 = test system: SNB-78
smiles,measurement,setting,value
Cc1nc2sc(C(=O)c3ccc(Cl)cc3)c(N)c2c(-c2ccccc2Cl)c1C(=O)Nc1ccccc1,GI50,786-0,10 µM (inactive)
same,GI50,A498,21.3 µM (inactive)
same,GI50,A549,9.06 µM (inactive)
same,GI50,ACHN,21.2 µM (inactive)
same,GI50,BT-549,20.2 µM (inactive)
same,GI50,CAKI-1,12 µM (inactive)
same,GI50,CCRF-CEM,3.77 µM (inactive)
same,GI50,COLO 205,18.3 µM (inactive)
same,GI50,DU-145,19.1 µM (inactive)
same,GI50,EKVX,21.9 µM (inactive)
same,GI50,HCC 2998,23.6 µM (inactive)
same,GI50,HCT-116,6.44 µM (inactive)
same,GI50,HCT-15,15.6 µM
same,GI50,HL-60,11.2 µM (inactive)
same,GI50,HOP-62,15.8 µM (inactive)
same,GI50,HOP-92,3.08 µM (inactive)
same,GI50,HT-29,12.2 µM (inactive)
same,GI50,Hs-578T,20.1 µM (inactive)
same,GI50,IGROV-1,19 µM (inactive)
same,GI50,K562,12.3 µM (inactive)
same,GI50,KM12,18.5 µM (inactive)
same,GI50,LOX IMVI,12.2 µM (inactive)
same,GI50,M14,9.71 µM (inactive)
same,GI50,MCF7,15.2 µM (inactive)
same,GI50,MDA-MB-231,14.2 µM (inactive)
same,GI50,MDA-MB-435,12.2 µM (inactive)
same,GI50,MDA-N,10.8 µM (inactive)
same,GI50,MOLT-4,14 µM (inactive)
same,GI50,Malme-3M,13 µM (inactive)
same,GI50,NCI-H226,17.7 µM (inactive)
same,GI50,NCI-H23,16.6 µM (inactive)
same,GI50,NCI-H460,9.02 µM (inactive)
same,GI50,NCI-H522,5.51 µM (inactive)
same,GI50,NCI/ADR-RES,19.5 µM (inactive)
same,GI50,OVCAR-3,16.4 µM (inactive)
same,GI50,OVCAR-4,16.5 µM (inactive)
same,GI50,OVCAR-5,16 µM (inactive)
same,GI50,OVCAR-8,13.4 µM (inactive)
same,GI50,PC-3,19 µM (inactive)
same,GI50,RPMI-8226,23.3 µM (inactive)
same,GI50,RXF 393,14.7 µM (inactive)
same,GI50,SF-268,19.3 µM (inactive)
same,GI50,SF-295,20.7 µM (inactive)
same,GI50,SF-539,14.7 µM (inactive)
same,GI50,SK-MEL-28,13.1 µM (inactive)
same,GI50,SK-MEL-2,3.08 µM (inactive)
same,GI50,SK-MEL-5,17.4 µM (inactive)
same,GI50,SK-OV-3,14.4 µM (inactive)
same,GI50,SN12C,9.42 µM (inactive)
same,GI50,SNB-19,22.2 µM (inactive)
same,GI50,SNB-75,11.4 µM (inactive)
same,GI50,SR,18.1 µM (inactive)
same,GI50,SW-620,6.22 µM (inactive)
same,GI50,T47D,2.93 µM (inactive)
same,GI50,TK-10,6.76 µM (inactive)
same,GI50,U-251,7.08 µM (inactive)
same,GI50,UACC-257,18.6 µM (inactive)
same,GI50,UACC-62,13.6 µM (inactive)
same,GI50,UO-31,17.3 µM (inactive)
Oc1ccccc1-c1nnc(S)n1/N=C/c1ccc(-c2ccc(Br)cc2)o1,GI50,786-0,39.2 µM (inactive)
same,GI50,A549,48.1 µM (inactive)
same,GI50,ACHN,29.6 µM (inactive)
same,GI50,COLO 205,39.6 µM (inactive)
same,GI50,DLD-1,34 µM (inactive)
same,GI50,HCT-116,33.7 µM (inactive)
same,GI50,HOP-62,29.9 µM (inactive)
same,GI50,HOP-92,18.4 µM (inactive)
same,GI50,HT-29,51.3 µM (inactive)
same,GI50,IGROV-1,29.2 µM (inactive)
same,GI50,K562,32.1 µM (inactive)
same,GI50,KM-20L2,35.5 µM (inactive)
same,GI50,KM12,34.7 µM (inactive)
same,GI50,LOX IMVI,23.7 µM (inactive)
same,GI50,LXFL 529,22 µM (inactive)
same,GI50,M14,41.7 µM (inactive)
same,GI50,M19-MEL,42.5 µM (inactive)
same,GI50,MOLT-4,25.4 µM (inactive)
same,GI50,NCI-H226,22.9 µM (inactive)
same,GI50,NCI-H23,20.5 µM (inactive)
same,GI50,NCI-H460,95.9 µM (inactive)
same,GI50,NCI-H522,60.4 µM (inactive)
same,GI50,OVCAR-3,24.2 µM (inactive)
same,GI50,OVCAR-4,15.6 µM (inactive)
same,GI50,OVCAR-5,> 100 µM (inactive)
same,GI50,OVCAR-8,34 µM (inactive)
same,GI50,SF-268,40.3 µM (inactive)
same,GI50,SF-295,60.4 µM (inactive)
same,GI50,SF-539,33 µM (inactive)
same,GI50,SK-MEL-28,56.5 µM (inactive)
same,GI50,SK-OV-3,31 µM (inactive)
same,GI50,SNB-19,24.4 µM (inactive)
same,GI50,SNB-75,32.7 µM (inactive)
same,GI50,SNB-78,23.6 µM (inactive)
same,GI50,SW-620,38.6 µM (inactive)
same,GI50,TK-10,15.2 µM (inactive)
same,GI50,U-251,25.9 µM (inactive)
same,GI50,UACC-257,24.3 µM (inactive)
same,GI50,UACC-62,13.1 µM (inactive)
same,GI50,UO-31,28 µM (inactive)
